In patent EP0428132A1, “Pradimicin derivatives” (Bristol-Myers Squibb Company, priority 1989, dated 1991):
Converted amounts (≈) assume the structure as drawn.

Key:
FA21436 = assay: In vitro antifungal activity, serial agar dilution method (Table 1); assay type: cell-based, Asoergukkys flavus; conditions: Sabouraud dextrose agar (pH 7.0); 28°C for 40 hours; read-out: MIC, Asoergukkys flavus FA21436
Method: (§1) The inoculum size was adjusted to 10⁶ cells/ml, and a volume of approximately 0.003 ml of fungal suspension was applied to the surface of the antibiotic containing agar plates with a multiinoculator. After incubation, the lowest concentration of antibiotic causing virtually complete inhibition of fungal growth was determined as the minimum inhibitory concentration (MIC). Table 1. [table]

[1] = system: Trichophyton mentagrophytes D155; assay: as above; assay type: cell-based; conditions: Trichophyton mentagrophytes, D155; Sabouraud dextrose agar (pH 7.0); 28°C for 40 hours
Method: as §1

Mucor spinosus IFO5317 = assay: as above; assay type: cell-based; conditions: Sabouraud dextrose agar (pH 7.0), 28°C for 40 hours
Method: as §1

[2] = system: Cryptococcus neoformans IAM4514; assay: as above; assay type: cell-based; conditions: Cryptococcus neoformans, IAM4514; Sabouraud dextrose agar (pH 7.0); 28°C for 40 hours
Method: as §1

[3] = system: Blastomyces dermatidis D40; assay: as above; assay type: cell-based; conditions: Blastomyces, D40; Sabouraud dextrose agar (pH 7.0); 28°C for 40 hours; read-out: MIC, Blastomyces dermatidis D40
Method: as §1

[4] = system: Fusarium moniliforme A2284; assay: as above; assay type: cell-based; conditions: Fusarium verticillioides, A2284; Sabouraud dextrose agar (pH 7.0); 28°C for 40 hours
Method: as §1

[5] = system: Trichophyton mentagrophytes #4329; assay: as above; assay type: cell-based; conditions: Trichophyton mentagrophytes; Sabouraud dextrose agar (pH 7.0); 28°C for 40 hours
Method: as §1

[6] = system: Sprotricosis schenckii IFO8158; assay: as above; assay type: cell-based; conditions: Sabouraud dextrose agar (pH 7.0); 28°C for 40 hours; read-out: MIC, Sprotricosis schenckii IFO8158
Method: as §1

Candida albicans A9540 [7] = assay: as above; assay type: cell-based; conditions: Candida albicans, A9540; Sabouraud dextrose agar (pH 7.0); 28°C for 40 hours
Method: as §1

[8] = system: Petriellidium boydii IFO8078; assay: as above; assay type: cell-based; conditions: Scedosporium boydii, IFO8078; Sabouraud dextrose agar (pH 7.0); 28°C for 40 hours
Method: as §1

[9] = system: Aspergillus fumigatus IAM2530; assay: as above; assay type: cell-based; conditions: Aspergillus fumigatus, IAM2530; Sabouraud dextrose agar (pH 7.0); 28°C for 40 hours
Method: as §1

Candida albicans IAM4888 = assay: as above; assay type: cell-based; conditions: Candida albicans, IAM4888; Sabouraud dextrose agar (pH 7.0); 28°C for 40 hours
Method: as §1

[10] = system: Aspergillus fumigatus IAM2034; assay: as above; assay type: cell-based; conditions: Aspergillus fumigatus, IAM2034; Sabouraud dextrose agar (pH 7.0); 28°C for 40 hours
Method: as §1

[11] = system: Cryptococcus neoformans D49; assay: as above; assay type: cell-based; conditions: Cryptococcus neoformans, D49; Sabouraud dextrose agar (pH 7.0); 28°C for 40 hours; read-out: MIC, Cryptococcus neoformans D49
Method: as §1

Candida albicans A9540 [12] = assay: Intravenous Candida albicans infection mouse model, Table 2 part B; assay type: in vivo, mice; conditions: at 1 and 3.5 hrs after infection and twice on the following day, 21 days after fungal challenge, method of Spearman-Karber, male ICR mice
Method: Several compounds were also evaluated in an intravenous Candida albicans […] infection mouse model. The test organism was suspended in saline approximately 10 times the median lethal dose of the fungus (10⁶ cells/mouse) were used to infect intravenously male ICR mice weighing 20 to 24 g. Groups of five mice at each dose level were given the test compounds intravenously or intramuscularly. The 50% protective dose (PD₅₀) was calculated from survival rates recorded 20 or 21 days after the fungal challenge. […]

[13] = system: Candida tropicalis A25809; assay: In vitro antifungal activity, serial agar dilution method (Table 1a); assay type: cell-based; conditions: YM agar (pH 7.0, Difco), 30°C for 2 days (yeast) or 4 days (filamentous fungi), read-out: MICs, Candida tropicalis A25809
Method: (§2) The inoculum size was adjusted to 10⁶ cells/ml, and a volume of approximately 0.003 ml of fungal suspension was applied to the surface of the antibiotic containing agar plates with a multiinoculator. After incubation, the lowest concentration of antibiotic causing virtually complete inhibition of fungal growth was determined as the minimum inhibitory concentration (MIC).

[14] = system: Candida tropicalis A25812; assay: as above; assay type: cell-based; conditions: A25812, YM agar (pH 7.0, Difco), 30°C for 2 days (yeast) or 4 days (filamentous fungi), read-out: MICs, Candida tropicalis A25812
Method: as §2

[15] = system: Microsporum gypseum WW1107; assay: as above; assay type: cell-based; conditions: Nannizzia gypsea, YM agar (pH 7.0, Difco), 30°C for 2 days (yeast) or 4 days (filamentous fungi), read-out: MICs, Microsporum gypseum WW1107
Method: as §2

[16] = system: Trichophyton mentagrophytes A26771; assay: as above; assay type: cell-based; conditions: A26771, YM agar (pH 7.0, Difco), 30°C for 2 days (yeast) or 4 days (filamentous fungi), read-out: MICs, Trichophyton mentagrophytes A26771
Method: as §2

[17] = system: Cryptococcus neoformans A15053; assay: as above; assay type: cell-based; conditions: A15053, YM agar (pH 7.0, Difco), 30°C for 2 days (yeast) or 4 days (filamentous fungi), read-out: MICs, Cryptococcus neoformans A15053
Method: as §2

[18] = system: Saccharomyces cerevisiae A25803; assay: as above; assay type: cell-based; conditions: YM agar (pH 7.0, Difco), 30°C for 2 days (yeast) or 4 days (filamentous fungi), read-out: MICs, Saccharomyces cerevisiae A25803
Method: as §2

Candida albicans A25578 = assay: as above; assay type: cell-based; conditions: A25578, YM agar (pH 7.0, Difco), 30°C for 2 days (yeast) or 4 days (filamentous fungi), read-out: MICs, Candida albicans A25578
Method: as §2

[19] = system: Candida paratropicalis A25825; assay: as above; assay type: cell-based; conditions: YM agar (pH 7.0, Difco); 30°C for 2 days (yeast) or 4 days (filamentous fungi); read-out: MICs, Candida paratropicalis A25825
Method: as §2

Method for physchem: The sample (3 ∼ 3.5 mg) was suspended in 1 ml of PBS(-) or PBS(+), sonicated at 30°C for 10 minutes, and allowed to stand at room temperature for 2 hours. The resulting solution or suspension was centrifuged at 12,000 rpm for 10 minutes. The supernatant (pH 6.7 ∼ 7.2) was diluted (5 x or 50 x) with 0.01N NaOH (pH ca. 11.5) and its UV absorption at 500 nm was measured. The solubility was assessed by the absorption coefficient value with reference to the standard. […] The zwitterionic form sample was used for the solubility test as it is. The hydrochloride salt sample (3 mg) was dissolved in 3 ml of distilled water and neutralized with 0.01N NaOH, and then the solution was lyophilized to give a test sample.
Dulbecco's phosphate buffered saline (PBS) solution was used. Preparation of PBS(-) solution: One PBS(-) tablet (Flow Laboratories, Cat. No. 28-103-05) was dissolved in 100 ml distilled water, and the solution was autoclaved for 10 minutes at 115°C. This solution contains 0.2 g/L of KCl, 0.2 g/L of KH₂PO₄, 8 g/L of NaCl, and 1.15 g/L of Na₂HPO₄. Preparation of PBS(+) solution: One PBS(-) tablet was dissolved in 80 ml distilled water; 10 mg of CaCl₂ was dissolved in 10 ml distilled water; 10 mg of MgCl₂, 6H₂O was dissolved in 10 ml distilled water. These solutions were separately autoclaved, as described above, and mixed when cooled.

For `CN[C@@H]1[C@H](O[C@@H]2OC[C@@H](O)[C@H](O)[C@H]2O)[C@@H](O)[C@H](O[C@H]2c3cc(C)c(C(=O)N[C@H](C)C(=O)O)c(O)c3-c3c(cc4c(c3O)C(=O)c3cc(OC)cc(O)c3C4=O)[C@@H]2O)O[C@@H]1C` [Pradimicin A, reference compound], the MIC (FA21436) was 6.3 µg/mL (≈ 7.49 µM), the MIC [1] was 6.3 µg/mL (≈ 7.49 µM) and the MIC (Mucor spinosus IFO5317; Mucor spinosus, IFO5317) was over 100 µg/mL. For the same molecule, the “Partial Inhibition, Mucor spinosus IFO5317” value (Mucor spinosus IFO5317; value in parentheses = Partial Inhibition) was 12.5 µg/mL, the MIC [2] was 0.8 µg/mL (≈ 0.951 µM) and the MIC [3] was 3.1 µg/mL (≈ 3.69 µM). It also gave an MIC [4] of 3.1 µg/mL (≈ 3.69 µM), an MIC [5] of 3.1 µg/mL (≈ 3.69 µM) and an MIC [6] of 1.6 µg/mL (≈ 1.9 µM). It also gave an MIC (Candida albicans A9540 [7]) of 50 µg/mL (≈ 59.5 µM), an MIC [8] of 12.5 µg/mL (≈ 14.9 µM) and an MIC [9] of 3.1 µg/mL (≈ 3.69 µM). It also gave an MIC (Candida albicans IAM4888) of 6.3 µg/mL (≈ 7.49 µM), an MIC [10] of 3.1 µg/mL (≈ 3.69 µM) and an MIC [11] of 0.8 µg/mL (≈ 0.951 µM). It also gave a PD₅₀ (Candida albicans A9540 [12]; Part B: route IM) of 8.2 mg/kg, a PD₅₀ (Candida albicans A9540 [12]; Part B: route IV) of 30 mg/kg and a solubility at 2 h (physchem; Method II (+): PBS(+)) of 81 µg/mL (≈ 96.3 µM). The solubility at 2 h (physchem; Method II (-): PBS(-)) was 17 µg/mL (≈ 20.2 µM), the MIC [13] was 1.6 µg/mL (≈ 1.9 µM) and the MIC [14] was over 50 µg/mL. It also gave an MIC [15] of 12.5 µg/mL (≈ 14.9 µM), an MIC [16] of 6.3 µg/mL (≈ 7.49 µM) and an MIC [17] of 0.4 µg/mL (≈ 0.476 µM). It also gave an MIC [18] of 0.8 µg/mL (≈ 0.951 µM), an MIC (Candida albicans A25578) of 3.2 µg/mL (≈ 3.81 µM) and an MIC [19] of over 50 µg/mL.
